Values of other authors, collected in EP0884997B1, “COMPOSITIONS CONTAINING AN ANTIFUNGAL AND A SULFUR COMPOUND” (JANSSEN PHARMACEUTICA N.V., priority 1996, dated 1997).

Settings: prior art medicated shampoos, dandruff patients

Row | SMILES | number of patients not responding to particular medicated shampoo
1 | CC(=O)N1CCN(c2ccc(OCC3COC(Cn4ccnc4)(c4ccc(Cl)cc4Cl)O3)cc2)CC1 (centres unmarked) [ketoconazole] | up to 30%
2 | S=[Se]=S [selenium sulfide] | up to 40%
